# Reference: patent US9802901B2, “Antibacterial 2H-indazole derivatives” (priority 2013, dated 2017)
# Like-named read-outs stand apart in the source and are kept apart here.
# How the values were obtained:
# [1] = system: Acinetobacter baumannii T6474; experiment: Bacterial growth minimal inhibitory concentration (broth microdilution, CLSI M7-A7); format: cell-based; conditions: Acinetobacter baumannii, T6474; cation-adjusted Mueller-Hinton Broth, microdilution; multiply-resistant (quinolone-resistant) strain; read-out: MIC for A. Baumannii T6474
# Procedure, shortened: (§1)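 Broth microdilution in cation-adjusted Mueller-Hinton Broth per CLSI M7-A7; MICs reported in mg/L. K. pneumoniae A-651 and A. baumannii T6474 are multiply resistant, quinolone-resistant strains; E. coli ATCC25922 and P. aeruginosa ATCC27853 are quinolone-sensitive.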
# P. aeruginosa ATCC27853 = experiment: as above; format: cell-based, Pseudomonas aeruginosa; conditions: Pseudomonas aeruginosa, ATCC27853; cation-adjusted Mueller-Hinton Broth, microdilution; quinolone-sensitive strain; read-out: MIC for P. aeruginosa ATCC27853
# Procedure, shortened: as §1
# K. pneumoniae A-651 = experiment: as above; format: cell-based, Klebsiella pneumoniae; conditions: Klebsiella pneumoniae, A651; cation-adjusted Mueller-Hinton Broth, microdilution; multiply-resistant (quinolone-resistant) strain; read-out: MIC for K. Pneumoniae A-651
# Procedure, shortened: as §1
# wild-type E. coli A-1261 = experiment: MIC against wild-type E. coli A-1261 with or without alkaline phosphatase or esterase; format: cell-based; conditions: Escherichia coli
# Description: Minimal Inhibitory Concentrations (MICs; mg/L) were determined in cation-adjusted Mueller-Hinton Broth by a microdilution method following the description given in “Methods for Dilution Antimicrobial Susceptibility Tests for Bacteria that Grow Aerobically”, Approved standard, 7th ed., Clinical and Laboratory Standards Institute (CLSI) Document M7-A7, Wayne, Pa., USA (2006).
# The compounds of Examples 62 and 63 were tested against wild-type E. coli A-1261 in the absence of alkaline phosphatase or esterase, in the presence of an alkaline phosphatase and in the presence of an esterase. The corresponding antibacterial test results are given in Table 2 hereafter (MICs in mg/L).
# E. coli ATCC25922 = experiment: Bacterial growth minimal inhibitory concentration (broth microdilution, CLSI M7-A7); format: cell-based, Escherichia coli; conditions: Escherichia coli, ATCC25922; cation-adjusted Mueller-Hinton Broth, microdilution; quinolone-sensitive strain; read-out: MIC for E. coli ATCC25922
# Procedure, shortened: as §1
# [2] = alkaline phosphatase 2 i.U./mL, read-out: MIC for E. coli A-1261 In the presence of an alkaline phosphatase (2 i.U./mL)
# [3] = esterase 10 i.U./mL, read-out: MIC for E. coli A-1261 In the presence of an esterase (10 i.U./mL)
# [4] = no alkaline phosphatase or esterase, read-out: MIC for E. coli A-1261 In the absence of alkaline phosphatase or esterase
MIC [1],MIC (P. aeruginosa ATCC27853),MIC (K. pneumoniae A-651),MIC (wild-type E. coli A-1261; [2]),MIC (wild-type E. coli A-1261; [3]),MIC (wild-type E. coli A-1261; [4]),MIC (E. coli ATCC25922),Compound
8 µg/mL,8 µg/mL,4 µg/mL,0.5 µg/mL,0.063 µg/mL,0.25 µg/mL,2 µg/mL,"CN(C)CC(=O)OCC1(c2ccc(C#Cc3ccc4nn(CC[C@](C)(C(=O)NO)S(C)(=O)=O)cc4c3)cc2)CC1.Cl [Example 63, (R)-(1-(4-((2-(4-(hydroxyamino)-3-methyl-3-(methylsulfonyl)-4-oxobutyl)-2H-indazol-5-yl)ethynyl)phenyl)cyclopropyl)methyl dimethylglycinate hydrochloride]"
–,–,–,1 µg/mL,> 16 µg/mL,> 16 µg/mL,–,"C[C@@](CCn1cc2cc(C#Cc3ccc(C4(COP(=O)(O)O)CC4)cc3)ccc2n1)(C(=O)NO)S(C)(=O)=O [Example 62, (R)-(1-(4-((2-(4-(hydroxyamino)-3-methyl-3-(methylsulfonyl)-4-oxobutyl)-2H-indazol-5-yl)ethynyl)phenyl)cyclopropyl)methyl dihydrogen phosphate]"
